Data reported in the NIST ThermoML archive (doi:10.1016/j.fluid.2014.11.020).
± gives the expanded uncertainty stated by the source.

Assay: activity coefficient (dimensionless); of the first substance listed, at infinite dilution; xn = mol fraction of the nth substance listed
Details: Liquid, Chromatography, x1 = 0

SMILES	activity coefficient (323.15 K)	activity coefficient (333.15 K)	activity coefficient (343.15 K)
CCC(=O)CC [pentan-3-one] + Cn1cc[n+](COCCCOC[n+]2ccn(C)c2)c1.O=S(=O)([N-]S(=O)(=O)C(F)(F)F)C(F)(F)F.O=S(=O)([N-]S(=O)(=O)C(F)(F)F)C(F)(F)F	0.6 ± 0.04	0.63 ± 0.04	0.63 ± 0.04
CC1CCCC1 [methylcyclopentane] + CCCOC[n+]1ccn(Cc2ccccc2)c1.O=S(=O)([N-]S(=O)(=O)C(F)(F)F)C(F)(F)F	5.48 ± 0.37	4.46 ± 0.3	4.02 ± 0.27
C=CCCCC [hex-1-ene] + CCCOC[n+]1ccn(Cc2ccccc2)c1.N#C[N-]C#N	15.9 ± 1.1	14.8 ± 1	
ClCCl [dichloromethane] + CCCCCCCCn1cc[n+](COCCCOC[n+]2ccn(CCCCCCCC)c2C)c1C.O=S(=O)([N-]S(=O)(=O)C(F)(F)F)C(F)(F)F.O=S(=O)([N-]S(=O)(=O)C(F)(F)F)C(F)(F)F	0.3 ± 0.03	0.3 ± 0.03	0.32 ± 0.03
CCCCCCCC [octane] + CCCOC[n+]1ccn(Cc2ccccc2)c1.N#C[N-]C#N	70.1 ± 4.8	61.5 ± 4.2	57.8 ± 4
CC(C)OC(C)C [diisopropyl ether] + CCCCCCCCn1cc[n+](COCCCOC[n+]2ccn(CCCCCCCC)c2C)c1C.N#C[N-]C#N.N#C[N-]C#N	4.38 ± 0.3	4.07 ± 0.28	3.93 ± 0.27
CCCCCCCCCCC [undecane] + CCCCCCCCn1cc[n+](COCCC)c1C.O=S(=O)([N-]S(=O)(=O)C(F)(F)F)C(F)(F)F	11.2 ± 0.76	10.5 ± 0.72	9.8 ± 0.67
CCCO [propan-1-ol] + Cn1cc[n+](COCCCOC[n+]2ccn(C)c2)c1.O=S(=O)([N-]S(=O)(=O)C(F)(F)F)C(F)(F)F.O=S(=O)([N-]S(=O)(=O)C(F)(F)F)C(F)(F)F	1.43 ± 0.09	1.32 ± 0.09	1.19 ± 0.08
CCCCCCCCC [nonane] + CCCOC[n+]1ccc(N(C)C)cc1.O=S(=O)([N-]S(=O)(=O)C(F)(F)F)C(F)(F)F	32.8 ± 2.2	30.6 ± 2.1	27.1 ± 1.9
c1ccsc1 [thiophene] + Cn1cc[n+](COCCCOC[n+]2ccn(C)c2)c1.O=S(=O)([N-]S(=O)(=O)C(F)(F)F)C(F)(F)F.O=S(=O)([N-]S(=O)(=O)C(F)(F)F)C(F)(F)F	0.77 ± 0.05	0.78 ± 0.05	0.78 ± 0.05
CCOCC [diethyl ether] + CCCOC[n+]1ccn(C)c1.O=S(=O)([N-]S(=O)(=O)C(F)(F)F)C(F)(F)F	2.21 ± 0.15	2.23 ± 0.15	
Cc1ccc(C)cc1 [1,4-dimethylbenzene] + Cn1cc[n+](COCCCOC[n+]2ccn(C)c2)c1.N#C[N-]C#N.N#C[N-]C#N	10.5 ± 0.72	10.2 ± 0.69	9.96 ± 0.68
C=CCCCC [hex-1-ene] + CCCCCCCCn1cc[n+](COCCCOC[n+]2ccn(CCCCCCCC)c2C)c1C.N#C[N-]C#N.N#C[N-]C#N	4.93 ± 0.34	4.41 ± 0.3	
CCCCCCCCCC [decane] + CCCOC[n+]1ccn(C)c1.F[B-](F)(F)F	635 ± 44	573 ± 39	500 ± 34
CCOCC [diethyl ether] + CN(C)c1cc[n+](COCCCOC[n+]2ccc(N(C)C)cc2)cc1.O=S(=O)([N-]S(=O)(=O)C(F)(F)F)C(F)(F)F.O=S(=O)([N-]S(=O)(=O)C(F)(F)F)C(F)(F)F	2.46 ± 0.17	2.47 ± 0.17	2.43 ± 0.17
CCc1ccccc1 [ethylbenzene] + CCCOC[n+]1ccn(Cc2ccccc2)c1.F[B-](F)(F)F	4.89 ± 0.33	4.71 ± 0.32	4.73 ± 0.32
C1COCCO1 [1,4-dioxane] + CCCOC[n+]1ccn(C)c1.N#C[N-]C#N	1.06 ± 0.07	1.09 ± 0.07	1.12 ± 0.07
ClC(Cl)(Cl)Cl [tetrachloromethane] + CCCCCCCCn1cc[n+](COCCCOC[n+]2ccn(CCCCCCCC)c2C)c1C.N#C[N-]C#N.N#C[N-]C#N	1.11 ± 0.07	1.12 ± 0.07	1.12 ± 0.07
CCc1ccccc1 [ethylbenzene] + Cn1cc[n+](COCCCOC[n+]2ccn(C)c2)c1.N#C[N-]C#N.N#C[N-]C#N	11.2 ± 0.77	10.9 ± 0.75	10.7 ± 0.73
CC1CCCCC1 [methylcyclohexane] + CCCCCCCCn1cc[n+](COCCCOC[n+]2ccn(CCCCCCCC)c2C)c1C.N#C[N-]C#N.N#C[N-]C#N	5.75 ± 0.39	5.07 ± 0.35	4.82 ± 0.33
CCCO [propan-1-ol] + CCCOC[n+]1ccn(Cc2ccccc2)c1.N#C[N-]C#N	0.84 ± 0.05	0.7 ± 0.05	0.69 ± 0.05
CC1CCCCC1 [methylcyclohexane] + CCCOC[n+]1ccn(C)c1.F[B-](F)(F)F	76 ± 5.2	70.4 ± 4.8	59.7 ± 4.1
